# Patent publication US20240226098A1, “COMPOUNDS AND METHODS FOR MODULATING SPLICING” (REMIX THERAPEUTICS INC., priority 2020, published 2024)
# What was measured:
# Type in all cases: cell-based
# Target C CJ mRNA = assay: Gene panel canonical junction qPCR assay: decrease in Target C CJ mRNA; settings: protocol as for Table 2, read-out: Target C (IC50, decrease in CJ mRNA levels)
# Method: (§1) Compounds described herein were used to modulate RNA transcript abundance in cells. The expression of a target mRNA was measured by detecting the formation of an exon-exon junction in the canonical transcript (CJ). A compound mediated exon-inclusion event was detected by observing an increase in formation of a new junction with an alternative exon (AJ). Real-time qPCR assays were used to detect these splicing switches and interrogate the potency of various compounds towards different target genes. A high-throughput real time quantitative PCR (RT-qPCR) assay was developed to measure these two isoforms of the mRNA (CJ and AJ) for an exemplary gene, HTT, together with a control housekeeping gene, GAPDH or GUSB or PPIA, used for normalization. Briefly, the A673 or K562 cell line was treated with various compounds described herein (e.g., compounds of Formula (I)). After treatment, the levels of the HTT mRNA targets were determined from each sample of cell lysate by cDNA synthesis followed by qPCR.
# (§2) The A673 cell line was cultured in DMEM with 10% FBS. Cells were diluted with full growth media and plated in a 96-well plate (15,000 cells in 100 ul media per well). The plate was incubated at 37° C. with 5% CO2 for 24 hours to allow cells to adhere. An 11-point 3-fold serial dilution of the compounds was made in DMSO then diluted in media in an intermediate plate. Compounds were transferred from the intermediate plate to the cell plate with the top dose at a final concentration of 10 uM in the well. Final DMSO concentration was kept at or below 0.25%. The cell plate was returned to the incubator at 37° C. with 5% CO2 for an additional 24 hours.
# (§3) The K562 cell line was cultured in IMDM with 10% FBS. For K562, cells were diluted with full growth media and plated in either a 96-well plate (50,000 cells in 50 uL media per well) or a 384-well plate (8,000-40,000 cells in 45 uL media per well). An 11-point 3-fold serial dilution of the compounds were made in DMSO then diluted in media in an intermediate plate. Compound was transferred from the intermediate plate to the cell plate with the top dose at a final concentration of 10 uM in the well. Final DMSO concentration was kept at or below 0.25%. Final volume was 100 uL for 96-well plate and 50 uL for 384-well plate. The cell plate was then placed in an incubator at 37° C. with 5% CO2 for 24 hours.
# (§4) The cells were then gently washed with 50 uL-100 uL cold PBS before proceeding to addition of lysis buffer. 30 uL-50 uL of room temperature lysis buffer with DNAse I (and optionally RNAsin) was added to each well. Cells were shaken/mixed thoroughly at room temperature for 5-10 minutes for lysis to take place and then 3 uL-5 uL of room temperature stop solution was added and wells were shaken/mixed again. After 2-5 minutes, the cell lysate plate was transferred to ice for RT-qPCR reaction setup. The lysates could also be frozen at −80° C. for later use.
# (§5) In some cases, a direct lysis buffer was used. An appropriate volume of 3× lysis buffer (10 mM Tris, 150 mM NaCl, 1.5%-2.5% Igepal and 0.1-1 U/uL RNAsin, pH 7.4) was directly added to either K562 or A673 cells in media and mixed by pipetting 3 times. The plates were then incubated at room temperature with shaking/rocking for 20-50 minutes to allow for lysis to take place. After this time, the cell lysate plate was transferred to ice to set up for the RT-qPCR reactions. The lysates could also be frozen at −80° C. for later use.
# (§6) To set up 10 uL RT-qPCR reactions, cell lysates were transferred to 384-well qPCR plates containing the master mix according to the table below. The plates were sealed, gently vortexed, and spun down before the run. The volumes were adjusted accordingly in some instances where the reaction was carried in 20 uL. The table below summarizes the components of the RT-qPCR reactions:
# (§7) The RT-qPCR reaction was performed using a QuantStudio (ThermoFisher) under the following fast cycling conditions. […]
# SMN2 CJ mRNA = assay: Gene panel canonical junction qPCR assay: decrease in SMN2 CJ mRNA; settings: protocol as for Table 2, read-out: SMN2 (IC50, decrease in CJ mRNA levels)
# Method: as §1, §2, §3, §4, §5, §6, §7
# [1] = test system: HTT mRNA, canonical junction (CJ); assay: Splicing assay (RT-qPCR): decrease in HTT canonical junction (CJ) mRNA; settings: A673 or K562 cell line, 24 hours treatment, top dose 10 uM; concentration having 50% response in CJ decrease
# Method: as §1
# (§8) • Cells-to-CT 1-step kit: ThermoFisher A25602, Cells-to-CT lysis reagent: ThermoFisher 4391851C, TaqMan™ Fast Virus 1-Step Master Mix: ThermoFisher 4444436 • GAPDH: VIC-PL, ThermoFisher 4326317E (Assay: Hs99999905_ml)—used for K562/suspension cell lines • GUSB: VIC-PL, ThermoFisher 4326320E (Assay: Hs99999908_ml)—used for K562/suspension cell lines • PPIA: VIC-PL, ThermoFisher 4326316E (Assay: Hs99999904_ml)—used for A673/adherent cell lines
# as §2, §3, §4
# as §5, with “use. […]” for “use.”
# HTT CJ mRNA = assay: Gene panel canonical junction qPCR assay: decrease in HTT CJ mRNA; settings: protocol as for Table 2, read-out: HTT (IC50, decrease in CJ mRNA levels)
# Method: as §1, §2, §3, §4, §5, §6, §7
# [2] = test system: HTT mRNA, alternative junction (AJ); assay: Splicing assay (RT-qPCR): increase in HTT alternative junction (AJ) mRNA; settings: A673 or K562 cell line, 24 hours treatment, top dose 10 uM; concentration having 50% response in AJ increase
# Method: as §1, §8, §2, §3, §4
# as §5, with “use. […]” for “use.”
IC50 (Target C CJ mRNA) [nM],IC50 (SMN2 CJ mRNA) [nM],IC50 (HTT CJ mRNA) [nM],SMILES,AC50 [1] [nM],AC50 [2] [nM]
1000 to 10000,< 100,1000 to 10000,"Cc1cn2cc(NC(=O)c3ccc(N4CCNCC4)c4ccnnc34)c(C)cc2n1 [Compound 119, N-[2,7-dimethylimidazo[1,2-a]pyridin-6-yl]-5-(piperazin-1-yl) cinnoline-8-carboxamide]",1000 to 10000,1000 to 10000
1000 to 10000,< 100,1000 to 10000,"Cc1cn2cc(NC(=O)c3ccc(N4CCC(N(C)C)C4)c4ccnnc34)cc(F)c2n1 (centres unmarked) [Compound 134, 5-[3-(dimethylamino)pyrrolidin-1-yl]-N-[8-fluoro-2-methylimidazo[1,2-a]pyridin-6-yl]cinnoline-8-carboxamide]",1000 to 10000,1000 to 10000
100 to 1000,< 100,1000 to 10000,"Cc1cn2cc(NC(=O)c3ccc(N4CCNCC4)c4nccnc34)cc(F)c2n1 [Compound 111, N-[8-fluoro-2-methylimidazo[1,2-a]pyridin-6-yl]-8-(piperazin-1-yl) quinoxaline-5-carboxamide]",1000 to 10000,1000 to 10000
100 to 1000,< 100,100 to 1000,"Cc1cn2cc(NC(=O)c3ccc(N4CCC(N(C)C)CC4)c4ccnnc34)cc(F)c2n1 [Compound 137, 5-[4-(dimethylamino)piperidin-1-yl]-N-[8-fluoro-2-methylimidazo[1,2-a]pyridin-6-yl] cinnoline-8-carboxamide]",100 to 1000,100 to 1000
> 10000,< 100,> 10000,"Cc1cn2cc(NC(=O)c3ccc(N4CCNCC4)c4ccnnc34)ncc2n1 [Compound 120, N-[2-methylimidazo[1,2-a]pyrazin-6-yl]-5-(piperazin-1-yl) cinnoline-8-carboxamide]",> 10000,> 10000
1000 to 10000,1000 to 10000,1000 to 10000,"Cc1cn2nc(NC(=O)c3ccc(N4CCNCC4)c4ccnnc34)cc2c(C)n1 [Compound 123, N-[4,6-dimethylpyrazolo[1,5-a]pyrazin-2-yl]-5-(piperazin-1-yl)cinnoline-8-carboxamide]",1000 to 10000,1000 to 10000
1000 to 10000,1000 to 10000,100 to 1000,"Cc1cn2cc(NC(=O)c3ccc(C4CCNCC4)c4ccnnc34)cc(F)c2n1 [Compound 103, N-[8-fluoro-2-methylimidazo[1,2-a]pyridin-6-yl]-5-(piperidin-4-yl) cinnoline-8-carboxamide]",1000 to 10000,100 to 1000
100 to 1000,< 100,1000 to 10000,"Cc1cn2cc(NC(=O)c3ccc(N4CCN5CCCC5C4)c4ccnnc34)cc(F)c2n1 (stereo in doubt) [Compound 154, 5-[(8aR)-hexahydro-1H-pyrrolo[1,2-a]pyrazin-2-yl]-N-[8-fluoro-2-methylimidazo[1,2-a]pyridin-6-yl]cinnoline-8-carboxamide]",1000 to 10000,1000 to 10000
100 to 1000,< 100,1000 to 10000,"Cc1cn2cc(NC(=O)c3ccc(N4CCNCC4)c4cncnc34)cc(F)c2n1 [Compound 112, N-[8-fluoro-2-methylimidazo[1,2-a]pyridin-6-yl]-5-(piperazin-1-yl)quinazoline-8-carboxamide]",1000 to 10000,1000 to 10000
100 to 1000,< 100,100 to 1000,"Cc1cn2cc(NC(=O)c3ccc(N4CCNC(C)C4)c4ccnnc34)cc(F)c2n1 (centres unmarked) [Compound 128, N-[8-fluoro-2-methylimidazo[1,2-a]pyridin-6-yl]-5-(3-methylpiperazin-1-yl) cinnoline-8-carboxamide]",100 to 1000,100 to 1000
> 10000,> 10000,> 10000,"Cn1cc2c(F)cc(NC(=O)c3ccc(N4CCNCC4)c4ccnnc34)cc2n1 [Compound 116, N-(4-fluoro-2-methylindazol-6-yl)-5-(piperazin-1-yl) cinnoline-8-carboxamide]",> 10000,> 10000
> 10000,< 100,1000 to 10000,"CCC1CN(c2ccc(C(=O)Nc3cc(F)c4nc(C)cn4c3)c3nnccc23)CCN1 (stereo in doubt) [Compound 152, 5-[(3R)-3-ethylpiperazin-1-yl]-N-[8-fluoro-2-methylimidazo[1,2-a]pyridin-6-yl]cinnoline-8-carboxamide]",1000 to 10000,1000 to 10000
1000 to 10000,< 100,1000 to 10000,"Cc1nc2c(F)cc(NC(=O)c3ccc(N4CCNCC4)c4ccnnc34)cc2o1 [Compound 117, N-(4-fluoro-2-methyl-1,3-benzoxazol-6-yl)-5-(piperazin-1-yl) cinnoline-8-carboxamide]",1000 to 10000,1000 to 10000
1000 to 10000,< 100,1000 to 10000,"Cc1cn2cc(NC(=O)c3ccc(N4CCNC(C)C4)c4ccnnc34)cc(F)c2n1 (stereo in doubt) [Compound 147, N-[8-fluoro-2-methylimidazo[1,2-a]pyridin-6-yl]-5-[(3R)-3-methylpiperazin-1-yl]cinnoline-8-carboxamide]",1000 to 10000,1000 to 10000
100 to 1000,< 100,1000 to 10000,"Cc1cn2cc(NC(=O)c3ccc(N4CC5(CNC5)C4)c4ccnnc34)cc(F)c2n1 [Compound 131, 5-[2,6-diazaspiro[3.3]heptan-2-yl]-N-[8-fluoro-2-methylimidazo[1,2-a]pyridin-6-yl]cinnoline-8-carboxamide]",1000 to 10000,1000 to 10000

SMILES,IC50 (Target C CJ mRNA) [nM],IC50 (SMN2 CJ mRNA) [nM],IC50 (HTT CJ mRNA) [nM],AC50 [1] [nM],AC50 [2] [nM]
"Cc1cn2cc(NC(=O)c3ccc(N(C)[C@@H]4C[C@H]5CC[C@@H](C4)N5)c4ccnnc34)cc(F)c2n1 [Compound 156, 5-[(exo)-8-azabicyclo[3.2.1]octan-3-yl(methyl)amino]-N-[8-fluoro-2-methylimidazo[1,2-a]pyridin-6-yl]cinnoline-8-carboxamide]",> 10000,100 to 1000,> 10000,> 10000,> 10000
